Tests used:
Experiment in all cases: relative viability (nuclei count vs DMSO), 5 days (fraction); higher = more cells survive
201T = tested on: 201T
Method in brief: (§1)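 Dosing by pin tool came one day after lung cancer cell lines were seeded in 1536-well plates, using either one drug or a fixed anchor-drug dose plus five library-drug doses (not always all listed) in √10 steps. After 5 days, nuclei were counted on 4× images. Relative viability is treated-well nuclei count divided by vehicle-well nuclei count, and values are medians of duplicate plates.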

COR-L 105 = tested on: COR-L 105
Method in brief: as §1

EPLC-272H = tested on: EPLC-272H
Method in brief: as §1

H3255 = tested on: H3255
Method in brief: as §1

HCC-78 = tested on: HCC-78
Method in brief: as §1

HCC-827 = tested on: HCC-827
Method in brief: as §1

LC-2-ad = tested on: LC-2-ad
Method in brief: as §1

LCLC-97TM1 = tested on: LCLC-97TM1
Method in brief: as §1

NCI-H1666 = tested on: NCI-H1666
Method in brief: as §1

NCI-H1915 = tested on: NCI-H1915
Method in brief: as §1

NCI-H2087 = tested on: NCI-H2087
Method in brief: as §1

NCI-H2126 = tested on: NCI-H2126
Method in brief: as §1

NCI-H2347 = tested on: NCI-H2347
Method in brief: as §1

NCI-H23 = tested on: NCI-H23
Method in brief: as §1

NCI-H2405 = tested on: NCI-H2405
Method in brief: as §1

NCI-H520 = tested on: NCI-H520
Method in brief: as §1

NCI-H647 = tested on: NCI-H647
Method in brief: as §1

NCI-H650 = tested on: NCI-H650
Method in brief: as §1

NCI-H661 = tested on: NCI-H661
Method in brief: as §1

PC-14 = tested on: PC-14
Method in brief: as §1

RERF-LC-KJ = tested on: RERF-LC-KJ
Method in brief: as §1

Cc1sc2c(c1C)C(c1ccc(Cl)cc1)=N[C@@H](CC(=O)OC(C)(C)C)c1nnc(C)n1-2 [JQ1] + CS(=O)(=O)CCNCc1ccc(-c2ccc3ncnc(Nc4ccc(OCc5cccc(F)c5)c(Cl)c4)c3c2)o1 [Lapatinib] (partner 2 µM)
relative viability (201T; first compound 0.04 µM): 0.998
relative viability (201T; first compound 0.1265 µM): 0.51
relative viability (201T; first compound 0.4 µM): 0.974
relative viability (201T; first compound 1.265 µM): 0.724
relative viability (201T; first compound 4 µM): 0.548
relative viability (COR-L 105; first compound 0.04 µM): 0.291
relative viability (COR-L 105; first compound 0.1265 µM): 0.279
relative viability (COR-L 105; first compound 0.4 µM): 0.323
relative viability (COR-L 105; first compound 1.265 µM): 0.346
relative viability (COR-L 105; first compound 4 µM): 0.361
relative viability (EPLC-272H; first compound 0.04 µM): 0.937
relative viability (EPLC-272H; first compound 0.1265 µM): 0.98
relative viability (EPLC-272H; first compound 0.4 µM): 0.994
relative viability (EPLC-272H; first compound 1.265 µM): 0.519
relative viability (EPLC-272H; first compound 4 µM): 0.5
relative viability (H3255; first compound 0.04 µM): 0.226
relative viability (H3255; first compound 0.1265 µM): 0.251
relative viability (H3255; first compound 0.4 µM): 0.248
relative viability (H3255; first compound 1.265 µM): 0.169
relative viability (H3255; first compound 4 µM): 0.227
relative viability (HCC-78; first compound 0.04 µM): 0.861
relative viability (HCC-78; first compound 0.1265 µM): 0.53
relative viability (HCC-78; first compound 0.4 µM): 0.493
relative viability (HCC-78; first compound 1.265 µM): 0.391
relative viability (HCC-78; first compound 4 µM): 0.28
relative viability (HCC-827; first compound 0.04 µM): 0.206
relative viability (HCC-827; first compound 0.4 µM): 0.21
relative viability (HCC-827; first compound 1.265 µM): 0.189
relative viability (HCC-827; first compound 4 µM): 0.202
relative viability (LC-2-ad; first compound 0.04 µM): 0.92
relative viability (LC-2-ad; first compound 0.1265 µM): 0.436
relative viability (LC-2-ad; first compound 0.4 µM): 0.409
relative viability (LC-2-ad; first compound 1.265 µM): 0.158
relative viability (LC-2-ad; first compound 4 µM): 0.155
relative viability (LCLC-97TM1; first compound 0.1265 µM): 0.805
relative viability (LCLC-97TM1; first compound 0.4 µM): 0.781
relative viability (LCLC-97TM1; first compound 1.265 µM): 0.243
relative viability (LCLC-97TM1; first compound 4 µM): 0.252
relative viability (NCI-H1666; first compound 0.04 µM): 0.697
relative viability (NCI-H1666; first compound 0.1265 µM): 0.476
relative viability (NCI-H1666; first compound 0.4 µM): 0.379
relative viability (NCI-H1666; first compound 1.265 µM): 0.278
relative viability (NCI-H1666; first compound 4 µM): 0.288
relative viability (NCI-H1915; first compound 0.04 µM): 0.976
relative viability (NCI-H1915; first compound 0.1265 µM): 0.574
relative viability (NCI-H1915; first compound 0.4 µM): 0.917
relative viability (NCI-H1915; first compound 1.265 µM): 0.582
relative viability (NCI-H1915; first compound 4 µM): 0.315
relative viability (NCI-H2087; first compound 0.04 µM): 1.12
relative viability (NCI-H2087; first compound 0.4 µM): 0.904
relative viability (NCI-H2087; first compound 1.265 µM): 0.786
relative viability (NCI-H2087; first compound 4 µM): 0.506
relative viability (NCI-H2126; first compound 0.04 µM): 0.759
relative viability (NCI-H2126; first compound 0.1265 µM): 0.746
relative viability (NCI-H2126; first compound 0.4 µM): 0.755
relative viability (NCI-H2126; first compound 1.265 µM): 0.604
relative viability (NCI-H2126; first compound 4 µM): 0.68
relative viability (NCI-H2347; first compound 0.04 µM): 0.934
relative viability (NCI-H2347; first compound 0.1265 µM): 0.623
relative viability (NCI-H2347; first compound 0.4 µM): 0.831
relative viability (NCI-H2347; first compound 1.265 µM): 0.701
relative viability (NCI-H2347; first compound 4 µM): 0.679
relative viability (NCI-H23; first compound 0.04 µM): 0.956
relative viability (NCI-H23; first compound 0.1265 µM): 0.943
relative viability (NCI-H23; first compound 0.4 µM): 1.09
relative viability (NCI-H23; first compound 1.265 µM): 0.301
relative viability (NCI-H23; first compound 4 µM): 0.362
relative viability (NCI-H2405; first compound 0.04 µM): 1.19
relative viability (NCI-H2405; first compound 0.4 µM): 1.12
relative viability (NCI-H2405; first compound 1.265 µM): 0.587
relative viability (NCI-H2405; first compound 4 µM): 0.485
relative viability (NCI-H520; first compound 0.04 µM): 0.874
relative viability (NCI-H520; first compound 0.1265 µM): 0.895
relative viability (NCI-H520; first compound 0.4 µM): 0.716
relative viability (NCI-H520; first compound 1.265 µM): 0.264
relative viability (NCI-H520; first compound 4 µM): 0.243
relative viability (NCI-H647; first compound 0.04 µM): 0.997
relative viability (NCI-H647; first compound 0.1265 µM): 0.509
relative viability (NCI-H647; first compound 0.4 µM): 0.439
relative viability (NCI-H647; first compound 1.265 µM): 0.104
relative viability (NCI-H647; first compound 4 µM): 0.0821
relative viability (NCI-H650; first compound 0.04 µM): 0.959
relative viability (NCI-H650; first compound 0.1265 µM): 0.527
relative viability (NCI-H650; first compound 0.4 µM): 0.647
relative viability (NCI-H650; first compound 1.265 µM): 0.259
relative viability (NCI-H650; first compound 4 µM): 0.295
relative viability (NCI-H661; first compound 0.04 µM): 0.402
relative viability (NCI-H661; first compound 0.1265 µM): 0.527
relative viability (NCI-H661; first compound 0.4 µM): 0.339
relative viability (NCI-H661; first compound 1.265 µM): 0.27
relative viability (NCI-H661; first compound 4 µM): 0.321
relative viability (PC-14; first compound 0.04 µM): 0.307
relative viability (PC-14; first compound 0.1265 µM): 0.245
relative viability (PC-14; first compound 0.4 µM): 0.352
relative viability (PC-14; first compound 1.265 µM): 0.284
relative viability (PC-14; first compound 4 µM): 0.211
relative viability (RERF-LC-KJ; first compound 0.04 µM): 0.807
relative viability (RERF-LC-KJ; first compound 0.1265 µM): 0.856
relative viability (RERF-LC-KJ; first compound 0.4 µM): 0.89
relative viability (RERF-LC-KJ; first compound 1.265 µM): 0.781
relative viability (RERF-LC-KJ; first compound 4 µM): 0.595

From the supplement of paper PMC10307832
